For three compounds, IC50, melting point and inhibition results are on record in paper PMC10452181, “Synthesis and Biological Evaluation of Cyclobutane-Based β3 Integrin Antagonists: A Novel Approach to Targeting Integrins for Cancer Therapy” (Cancers, 2023).

As a reminder, the melting point is the temperature of the solid-liquid transition. As usually defined, the inhibition is the change of the read-out against control, counted positive when it falls. The low end stands for a response near the control, the high end for a response far below the control.

One data set deals with M14 cells. Kind of data set: cells. The data set is classed as cell-based, human. The settings on record: 24 h. As for the experimental part: M14 cells (4 × 10^5/mL in RPMI 1640 medium) were seeded in six-well plates and incubated at 37 °C in a 5% CO2 humidified atmosphere for 48 h. The resulting confluent monolayer was scratched with a sterile P200 pipette tip to create a gap (approximately 2 cm in length and 650 μm in width) in the centre of the well. The medium was removed, and the cells washed with Hank’s balanced salt solution (HBSS) (1 mL) and replaced with a medium containing the test antagonist. After 24 h, the cells were washed twice with HBSS and fixed with ice-pre-cooled methanol for thirty minutes at −20 °C. Following hydration with two washes in PBS, the monolayers were counterstained with Harris’s haematoxylin solution for two minutes, then washed in tap water for one minute and left to dry at room temperature. The plates were observed using an inverted microscope, and digital images captured.
The anti-αvβ3 activity of selected compounds was confirmed in a wound-healing assay (Figure 3). A number of cell lines were initially investigated for their suitability in this assay. The Sk-Mel-2 cell line which adhered well to fibronectin in the adhesion assay migrated very slowly; therefore, M14 melanoma cells which combined high levels of αvβ3 with rapid migration and low levels of proliferation over the assay period (Supplementary Figure S4) were selected.

A short description of the next data set: in vitro. The data set is classed as cell-based, human. The settings on record: human.
Data set [1] is described as follows: Cytotoxicity by MTT assay, 96 h, M14. It is filed as cell-based, human. As to conditions: human. How it is done:
Before use in cell-based assays of integrin function, the effect of compounds on cell proliferation was tested using the MTT assay to avoid adhesion results being confounded by cell death (Supplementary Table S1). The effect of compounds on cell adhesion was then initially tested at a single, nontoxic concentration to identify active antagonists for further characterisation; those displaying a promising activity in the adhesion assay were tested at a wider range of concentrations to determine the IC50 (Table 2). […] Nevertheless, it is a cost-effective initial screening method. page 4: Table S1. Cytotoxicity of compounds on the cell lines used in the functional assays (measured by MTT assay). Cells (2000 cells/well for Sk-Mel-2; 1 x 10^4 cells/mL for M14) were incubated for 96 hours at 37 ° C in a total volume of 200 μL/well (180 μL medium + 20 μ L test compound solution). After 96 hours, the medium was replaced by fresh medium containing 0.5 mg/ml (end conc.) MTT per well, incubated for 4 h then the plate processed and read as described in the main text. […] ICT9053 41 naphthyridine 1 NHSO2Mes H Ester 52.6 ± 0.6 72.7 ± 9.8 ICT9065 42 naphthyridine 1 H H Ester >100 - ICT9079 43 naphthyridine 0 NHSO2Mes H Ester ~100 - ICT9061 44 naphthyridineT 1 NHSO2Mes H Ester 46.8 ± 10.7 - […] Ester 65.4 ± 11.1 >100 […] Ester 9.6 ± 5.7 >100 […] Ester >100 - […] Ester 54.6 ± 11.0 - […] Ester >5 3.3 ± 0.8 […] ICT9028 51 pyrimidine 2 NHSO2Ph H Acid >100 - ICT9031 52 pyrimidineT 1 NHSO2Mes H Acid >100 - ICT9090 53 pyrimidineT 2 NHSO2Mes H Acid >50 - ICT9029 54 pyrimidineT 2 NHSO2Ph H Acid >100 - ICT9063 55 naphthyridine 1 NHSO2Mes H Acid 61.7 ± 2.8 - […] Acid 45.5 ± 7.9 >100 […] 42.5 ± 1.8 >50 RGDS >50 - T trans configuration of cyclobutane sidechains.

The target in a further data set is T1, αvβ3 (Homo sapiens, UniProt P05106+P06756).
T1 construct: endogenous in cells; host or cells: SK-Mel-2 melanoma cells
T1 sequence (P06756 31-889 limits assumed): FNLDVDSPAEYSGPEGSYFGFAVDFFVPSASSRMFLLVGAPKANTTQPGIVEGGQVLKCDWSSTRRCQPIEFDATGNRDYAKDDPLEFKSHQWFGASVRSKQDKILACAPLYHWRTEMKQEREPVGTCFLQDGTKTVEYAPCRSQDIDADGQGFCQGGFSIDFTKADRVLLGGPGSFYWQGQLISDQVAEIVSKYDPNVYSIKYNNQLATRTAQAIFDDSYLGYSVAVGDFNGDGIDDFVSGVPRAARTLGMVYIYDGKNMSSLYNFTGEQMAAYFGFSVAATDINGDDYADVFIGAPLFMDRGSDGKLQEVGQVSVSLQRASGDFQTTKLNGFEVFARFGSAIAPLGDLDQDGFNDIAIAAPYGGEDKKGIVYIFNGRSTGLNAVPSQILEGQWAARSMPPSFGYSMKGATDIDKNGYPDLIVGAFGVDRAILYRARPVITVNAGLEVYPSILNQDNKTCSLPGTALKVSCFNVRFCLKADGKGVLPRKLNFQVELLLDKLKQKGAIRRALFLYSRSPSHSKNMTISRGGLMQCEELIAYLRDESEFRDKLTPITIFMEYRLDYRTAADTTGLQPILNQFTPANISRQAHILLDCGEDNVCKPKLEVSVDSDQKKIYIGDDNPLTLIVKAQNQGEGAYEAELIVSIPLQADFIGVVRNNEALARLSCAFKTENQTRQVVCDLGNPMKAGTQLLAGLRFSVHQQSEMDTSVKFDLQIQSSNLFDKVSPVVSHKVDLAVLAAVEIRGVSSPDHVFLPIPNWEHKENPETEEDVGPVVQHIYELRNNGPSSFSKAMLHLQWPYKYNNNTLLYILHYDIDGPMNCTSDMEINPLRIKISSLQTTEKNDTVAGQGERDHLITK
T1 sequence (P06756 891-1048 partner limits assumed): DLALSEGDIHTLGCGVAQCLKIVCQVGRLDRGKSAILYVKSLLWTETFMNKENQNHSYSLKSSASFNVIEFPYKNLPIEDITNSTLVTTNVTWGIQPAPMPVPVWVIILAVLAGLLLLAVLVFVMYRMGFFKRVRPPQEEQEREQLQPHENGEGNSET
T1 sequence (P05106 27-788): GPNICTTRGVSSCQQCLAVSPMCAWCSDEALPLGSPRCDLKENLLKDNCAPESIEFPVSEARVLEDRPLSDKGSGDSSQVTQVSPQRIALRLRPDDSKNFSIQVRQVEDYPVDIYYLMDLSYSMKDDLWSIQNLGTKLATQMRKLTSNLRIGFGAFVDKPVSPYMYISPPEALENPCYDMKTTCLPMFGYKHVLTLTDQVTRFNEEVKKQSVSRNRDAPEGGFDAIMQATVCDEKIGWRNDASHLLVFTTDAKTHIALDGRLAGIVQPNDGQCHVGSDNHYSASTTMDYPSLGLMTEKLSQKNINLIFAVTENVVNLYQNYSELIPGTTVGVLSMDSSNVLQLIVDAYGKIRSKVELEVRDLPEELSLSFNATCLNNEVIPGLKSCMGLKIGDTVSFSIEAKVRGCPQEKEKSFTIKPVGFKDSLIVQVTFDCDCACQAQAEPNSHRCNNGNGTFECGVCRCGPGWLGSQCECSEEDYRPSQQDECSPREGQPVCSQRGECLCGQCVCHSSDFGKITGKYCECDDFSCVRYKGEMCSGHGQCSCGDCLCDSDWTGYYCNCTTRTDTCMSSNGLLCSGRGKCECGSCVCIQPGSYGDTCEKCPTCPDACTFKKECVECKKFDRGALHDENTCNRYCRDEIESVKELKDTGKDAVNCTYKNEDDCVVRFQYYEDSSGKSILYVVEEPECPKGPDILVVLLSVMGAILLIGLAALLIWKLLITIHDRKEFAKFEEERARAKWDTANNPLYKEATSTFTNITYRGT
Kind of data set: Sk-Mel-2 cell adhesion to immobilised fibronectin (cell-binding assay, MTT readout). It is filed as cell-based. As to conditions: Sk-Mel-2 adhesion to Fn, mean ± SD. In a few lines:
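SK-Mel-2 cells in serum-free RPMI were pretreated with compound (0.1% DMSO final) for 4 h, then allowed to adhere for 1 h at 37 °C to fibronectin-coated, BSA-blocked wells. Adherent cells were grown overnight in 10% FCS and quantified by MTT (A540), normalised to untreated fibronectin (100%) and BSA-only (0%) wells.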

Where two headings read alike, the source gives them in different places. A value given as a limit tells only on which side of the number the result lay.

Consider `COC(=O)CCNC(=O)C1CC(CCCNc2ncccn2)C1` (stereo not shown) [ICT9003 22, 3-({3-[3-(Pyrimidin-2-ylamino)-propyl]-cyclobutanecarbonyl}-amino)-propionic acid methyl ester], for which the melting point was 94 to 95 °C. For the same compound, the IC50 with M14 cells (Homo sapiens, M14 scratch wound, mean ± SD, read-out: Migration IC50) amounted to 4.8 ± 0.2 µM. In “in vitro”, this compound yielded an IC50 at 96 h of more than 100 µM. Moreover, the IC50 at 96 h in data set [1] (M14 cells, MTT, 96 hours, read-out: M14 IC50 (cytotoxicity)) is more than 100 µM.
`NC(N)=NCCC[C@H](N)C(=O)NCC(=O)N[C@@H](CC(=O)O)C(=O)N[C@@H](CO)C(=O)O` [RGDS, reference compound] displayed an IC50 at 96 h in the data set “in vitro” of more than 50 µM. Moreover, the inhibition at 5 µM at αvβ3 (5 μM) stood at 68.5 ± 29.1%. At αvβ3 (50 μM), this compound returned an inhibition at 50 µM of 45.8 ± 16.6%.
Consider `CC(C)[C@@H]1NC(=O)[C@@H](Cc2ccccc2)NC(=O)[C@H](CC(=O)O)NC(=O)CNC(=O)[C@H](CCCNC(=N)N)NC1=O` [cRGDfV, reference compound], for which the IC50 in the data set on M14 cells was 4 ± 0.07 µM. Besides, the IC50 at 96 h in “in vitro” is 42.5 ± 1.8 µM; in data set [1], more than 50 µM.
